Results published in US10130631B2, “CML therapeutic agents with reduced drug-resistance and side-effect comprising 1,6-disubstituted indole compounds” (KOREA INSTITUTE OF SCIENCE AND TECHNOLOGY, priority 2016, dated 2018).

Tests used:
Assay type in all cases: cell-based
Parental Ba/F3 = experiment: Proliferation inhibitory activity, parental Ba/F3; conditions: Mus musculus, BaF3; parental Ba/F3 cell line
Description: (§1) The GI50 value was calculated by measuring the inhibitory effect on the proliferation of the compounds of the present invention in parental Ba/F3, wt-Bcr-Abl Ba/F3, T315I-Bcr-Abl Ba/F3 and VEGFR2 Ba/F3 cell lines.

wt-Bcr-Abl Ba/F3 = experiment: Proliferation inhibitory activity, wt-Bcr-Abl Ba/F3; conditions: for GI50: Mus musculus, BaF3, wt-Bcr-Abl Ba/F3 cell line; for inhibitory activity against wt-Bcr-Abl (in words): summary of Table 1
Description: as §1

T315I-Bcr-Abl Ba/F3 = experiment: Proliferation inhibitory activity, T315I-Bcr-Abl Ba/F3; conditions: for GI50: Mus musculus, BaF3, T315I-Bcr-Abl Ba/F3 cell line; for inhibitory activity against T315I-Bcr-Abl (in words): summary of Table 1
Description: as §1

VEGFR2 Ba/F3 = experiment: Proliferation inhibitory activity, VEGFR2 Ba/F3; conditions: for GI50: Mus musculus, BaF3, VEGFR2 Ba/F3 cell line; for inhibitory activity against VEGFR2 kinase (in words): summary of Table 1
Description: as §1

Compound	GI50 (wt-Bcr-Abl Ba/F3)	GI50 (T315I-Bcr-Abl Ba/F3)	GI50 (VEGFR2 Ba/F3)	GI50 (Parental Ba/F3)	inhibitory activity against wt-Bcr-Abl (in words) (wt-Bcr-Abl Ba/F3)	inhibitory activity against T315I-Bcr-Abl (in words) (T315I-Bcr-Abl Ba/F3)	inhibitory activity against VEGFR2 kinase (in words) (VEGFR2 Ba/F3)
Cc1cn(-c2cc(C(=O)Nc3cccc(-c4ccc5ccn(-c6cc(N)ncn6)c5c4)c3)cc(C(F)(F)F)c2)cn1 [Compound No. 7, N-(3-(1-(6-aminopyrimidine-4-yl)-1H-indole-6-yl)phenyl)-3-(4-methyl-1H-imidazole-1-yl)-5-(trifluoromethyl)benzamide]	> 3000 nM	300 to 3000 nM	> 3000 nM	> 3000 nM	–	–	–
COc1ccccc1NC(=O)Nc1ccc(C)c(-c2ccc3ccn(-c4cc(N)ncn4)c3c2)c1 [Compound No. 9, 1-(3-(1-(6-aminopyrimidine-4-yl)-1H-indole-6-yl)-4-methylphenyl)-3-(2-methoxyphenyl) urea]	> 3000 nM	> 3000 nM	> 3000 nM	> 3000 nM	–	–	–
COc1ccccc1NC(=O)Nc1cccc(-c2ccc3ccn(-c4ncnc5[nH]ccc45)c3c2)c1 [Compound No. 10, 1-(3-(1-(7H-pyrrolo[2,3-d]pyrimidine-4-yl)-1H-indole-6-yl)phenyl)-3-(2-methoxyphenyl)urea]	> 3000 nM	> 3000 nM	> 3000 nM	> 3000 nM	–	–	–
Cc1cn(-c2cc(C(=O)Nc3ccc(C)c(-c4ccc5ccn(-c6ncnc7[nH]ccc67)c5c4)c3)cc(C(F)(F)F)c2)cn1 [Compound No. 11]	< 300 nM	< 300 nM	> 3000 nM	300 to 3000 nM	have a wt-Bcr-Abl inhibitory activity	strong inhibitory activity	does not exhibit any inhibitory activity
Cc1ccc(NC(=O)c2cc(N3CCC(O)CC3)cc(C(F)(F)F)c2)cc1-c1ccc2ccn(-c3ncnc4[nH]ccc34)c2c1 [Compound No. 12, N-(3-(1-(7H-pyrrolo[2,3-d]pyrimidine-4-yl)-1H-indole-6-yl)-4-methylphenyl)-3-(4-hydroxypiperidine-1-yl)-5-(trifluoromethyl)benzamide]	> 3000 nM	300 to 3000 nM	> 3000 nM	> 3000 nM	–	–	–
Cc1ccc(NC(=O)c2cc(N3CCN(C)CC3)cc(C(F)(F)F)c2)cc1-c1ccc2ccn(-c3ncnc4[nH]ccc34)c2c1 [Compound No. 14, N-(3-(1-(7H-pyrrolo[2,3-d]pyrimidine-4-yl)-1H-indole-6-yl)-4-methylphenyl)-3-(4-methylpiperazine-1-yl)-5-(trifluoromethyl)benzamide]	300 to 3000 nM	< 300 nM	300 to 3000 nM	300 to 3000 nM	–	–	–
Cc1ccc(NC(=O)c2ccc(N3CCN(C)CC3)c(C(F)(F)F)c2)cc1-c1ccc2ccn(-c3ncnc4[nH]ccc34)c2c1 [Compound No. 15, N-(3-(1-(7H-pyrrolo[2,3-d]pyrimidine-4-yl)-1H-indole-6-yl)-4-methylphenyl)-4-(4-methylpiperazine-1-yl)-5-(trifluoromethyl)benzamide]	300 to 3000 nM	< 300 nM	300 to 3000 nM	300 to 3000 nM	–	–	–
Cc1ccc(NC(=O)c2ccc(CN3CCN(C)CC3)c(C(F)(F)F)c2)cc1-c1ccc2ccn(-c3ncnc4[nH]ccc34)c2c1 [Compound No. 16, N-(3-(1-(7H-pyrrolo[2,3-d]pyrimidine-4-yl)-1H-indole-6-yl)-4-methylphenyl)-4-((4-methylpiperazine-1-yl)methyl)-3-(trifluoromethyl)benzamide]	< 300 nM	< 300 nM	300 to 3000 nM	300 to 3000 nM	–	–	–

Second part, led by results:

GI50 (wt-Bcr-Abl Ba/F3)	GI50 (T315I-Bcr-Abl Ba/F3)	GI50 (VEGFR2 Ba/F3)	Compound	GI50 (Parental Ba/F3)	inhibitory activity against wt-Bcr-Abl (in words) (wt-Bcr-Abl Ba/F3)	inhibitory activity against T315I-Bcr-Abl (in words) (T315I-Bcr-Abl Ba/F3)	inhibitory activity against VEGFR2 kinase (in words) (VEGFR2 Ba/F3)
300 to 3000 nM	< 300 nM	> 3000 nM	Cc1cn(-c2cc(C(=O)Nc3ccc(C)c(-c4ccc5ccn(-c6cc(N)ncn6)c5c4)c3)cc(C(F)(F)F)c2)cn1 [Compound No. 1]	300 to 3000 nM	have a wt-Bcr-Abl inhibitory activity	strong inhibitory activity	does not exhibit any inhibitory activity
> 3000 nM	< 300 nM	> 3000 nM	Cc1ccc(NC(=O)c2cc(N3CCC(O)CC3)cc(C(F)(F)F)c2)cc1-c1ccc2ccn(-c3cc(N)ncn3)c2c1 [Compound No. 2]	> 3000 nM	–	–	–
> 3000 nM	< 300 nM	> 3000 nM	Cc1ccc(NC(=O)c2cc(N3CCOCC3)cc(C(F)(F)F)c2)cc1-c1ccc2ccn(-c3cc(N)ncn3)c2c1 [Compound No. 3]	> 3000 nM	–	–	–
300 to 3000 nM	< 300 nM	> 3000 nM	Cc1ccc(NC(=O)c2ccc(N3CCN(C)CC3)c(C(F)(F)F)c2)cc1-c1ccc2ccn(-c3cc(N)ncn3)c2c1 [Compound No. 5]	300 to 3000 nM	have a wt-Bcr-Abl inhibitory activity	strong inhibitory activity	does not exhibit any inhibitory activity
> 3000 nM	> 3000 nM	> 3000 nM	Nc1cc(-n2ccc3ccc(-c4cccc(NC(=O)c5cc(N6CCOCC6)cc(C(F)(F)F)c5)c4)cc32)ncn1 [Compound No. 8, N-(3-(1-(6-aminopyrimidine-4-yl)-1H-indole-6-yl)phenyl)-3-morpholino-5-(trifluoromethyl)benzamide]	> 3000 nM	–	–	–
300 to 3000 nM	300 to 3000 nM	> 3000 nM	Cc1ccc(NC(=O)c2cc(N3CCOCC3)cc(C(F)(F)F)c2)cc1-c1ccc2ccn(-c3ncnc4[nH]ccc34)c2c1 [Compound No. 13, N-(3-(1-(7H-pyrrolo[2,3-d]pyrimidine-4-yl)-1H-indole-6-yl)-4-methylphenyl)-3-morpholino-5-(trifluoromethyl)benzamide]	> 3000 nM	–	–	–
